“And” between values parts separate entries of the source, which are not always exact repeats. Equal values may be shown once. “Also recorded” adds a separate entry of the source. Read-outs that look alike come from different tables or passages of the source.
Tests used:
[1] = biological target: T1, SARS-CoV-2 NSP3 macrodomain (Severe acute respiratory syndrome coronavirus 2, UniProt P0DTD1); test: X-ray fragment screening (XChem, crystal soaking); format: binding
[2] = biological target: T2, recombinant SETD2 (Homo sapiens, UniProt Q9BYW2); test: SETD2 Chemiluminescence assay (H3K36 tri-methylation); format: biochemical; conditions: for experimental hit status, SETD2: 1 = hit, 0 = no hit; for SETD2 signal, blank corrected, normalized to positive ctrl: internal control
T2 construct: purchased BPS Bioscience 52060
T2 sequence (Q9BYW2 1418-1714 limits assumed): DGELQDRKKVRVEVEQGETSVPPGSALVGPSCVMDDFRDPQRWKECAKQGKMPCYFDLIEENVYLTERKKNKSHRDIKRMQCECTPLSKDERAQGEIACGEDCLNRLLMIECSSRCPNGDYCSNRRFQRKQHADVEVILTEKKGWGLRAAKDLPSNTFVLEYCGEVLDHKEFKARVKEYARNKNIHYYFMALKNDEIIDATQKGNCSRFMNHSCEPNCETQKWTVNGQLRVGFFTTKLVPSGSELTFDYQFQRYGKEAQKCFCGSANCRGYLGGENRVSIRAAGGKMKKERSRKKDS

[3] = biological target: T3, human thrombin (Homo sapiens, UniProt P00734); test: Protease inhibitory assay, chromogenic substrate S-2238; format: biochemical; conditions: for experimental hit status, Thrombin: 1 = hit, 0 = no hit, screening at 200 µM
T3 construct: human thrombin; purchased Sigma-Aldrich

[4] = biological target: T4, human 5-HT7b receptor (Homo sapiens, UniProt P34969); test: GPCR radioligand binding assay, [3H]-5-CT displacement, HEK293 membranes; conditions: for experimental hit status, 5-HT7: 1 = hit, 0 = no hit, tested at 10 µM, hit = 50% or stronger inhibition
T4 construct: expressed in transfected cells

[5] = biological target: T5, human 5-HT6 receptor (Homo sapiens, UniProt P50406); test: GPCR radioligand binding assay, [3H]-LSD displacement, HEK293 membranes; conditions: for experimental hit status, 5-HT6: 1 = hit, 0 = no hit, tested at 10 µM, hit = 50% or stronger inhibition
T5 construct: expressed in transfected cells

[6] = biological target: T6, human 5-HT1A receptor (Homo sapiens, UniProt P08908); test: GPCR radioligand binding assay, [3H]-8-OH-DPAT displacement, HEK293 membranes; conditions: for experimental hit status, 5-HT1: 1 = hit, 0 = no hit, tested at 10 µM, hit = 50% or stronger inhibition
T6 construct: expressed in transfected cells
T6 sequence (P08908 1-422): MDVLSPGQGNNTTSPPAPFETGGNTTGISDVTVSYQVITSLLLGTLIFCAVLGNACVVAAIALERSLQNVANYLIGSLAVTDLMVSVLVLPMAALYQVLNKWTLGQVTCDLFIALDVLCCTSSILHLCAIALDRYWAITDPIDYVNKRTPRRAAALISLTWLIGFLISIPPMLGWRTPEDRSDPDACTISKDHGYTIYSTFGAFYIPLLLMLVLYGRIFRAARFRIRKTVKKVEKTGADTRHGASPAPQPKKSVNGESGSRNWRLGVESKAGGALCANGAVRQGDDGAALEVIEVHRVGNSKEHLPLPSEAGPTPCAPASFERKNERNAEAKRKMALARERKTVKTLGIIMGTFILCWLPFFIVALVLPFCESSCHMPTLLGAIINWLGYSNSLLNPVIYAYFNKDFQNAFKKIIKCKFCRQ

[7] = biological target: T7, bovine factor Xa (Bos taurus, UniProt P00743); test: Protease inhibitory assay, chromogenic substrate S-2222; format: biochemical; conditions: 1 = hit, 0 = no hit; screening at 200 µM
T7 construct: bovine factor Xa, Chromogenix, 2 nkat/mL; purchased Chromogenix

[8] = test system: SARS-CoV-2; test: microbe, parasite or virus in culture; format: cell-based; conditions: for antiviral activity in the cellular assay (in words): infected Vero E6 cells
[9] = biological target: T1, SARS-CoV-2 NSP3 macrodomain; test: NSP3 macrodomain HTRF assay, displacement of ADP-ribose-conjugated biotin peptide; format: binding
[10] = test system: SETD2; conditions: cited from earlier work
[11] = 10 µM, read-out: 5-HT7 % Inhibition by plate position
[12] = 5-HT7, average of exp_1 and exp_2, read-out: %inh 5-HT7 average
[13] = 5-HT7, average, values below 0 and above 100% were set as 0 and 100, read-out: %inh 5-HT7 corrected*
[14] = 5-HT7, replicate exp_1, read-out: %inh 5-HT7 exp_1
[15] = 5-HT7, replicate exp_2, read-out: %inh 5-HT7 exp_2
[16] = 10 µM, read-out: 5-HT6 % Inhibition by plate position
[17] = 5-HT6, average of exp_1 and exp_2, read-out: %inh 5-HT6 average
[18] = 5-HT6, average, values below 0 and above 100% were set as 0 and 100, read-out: %inh 5-HT6 corrected*
[19] = 5-HT6, replicate exp_1, read-out: %inh 5-HT6 exp_1
[20] = 5-HT6, replicate exp_2, read-out: %inh 5-HT6 exp_2
[21] = 10 µM, read-out: 5-HT1A % Inhibition by plate position
[22] = 5-HT1A, average of exp_1 and exp_2, read-out: %inh 5-HT1A average
[23] = 5-HT1A, average, values below 0 and above 100% were set as 0 and 100, read-out: %inh 5-HT1A corrected*
[24] = 5-HT1A, replicate exp_1, read-out: %inh 5-HT1A exp_1
[25] = 5-HT1A, replicate exp_2, read-out: %inh 5-HT1A exp_2
[26] = IC50, SARS-CoV-2 macrodomain inhibition

T4 sequence (P34969 1-432): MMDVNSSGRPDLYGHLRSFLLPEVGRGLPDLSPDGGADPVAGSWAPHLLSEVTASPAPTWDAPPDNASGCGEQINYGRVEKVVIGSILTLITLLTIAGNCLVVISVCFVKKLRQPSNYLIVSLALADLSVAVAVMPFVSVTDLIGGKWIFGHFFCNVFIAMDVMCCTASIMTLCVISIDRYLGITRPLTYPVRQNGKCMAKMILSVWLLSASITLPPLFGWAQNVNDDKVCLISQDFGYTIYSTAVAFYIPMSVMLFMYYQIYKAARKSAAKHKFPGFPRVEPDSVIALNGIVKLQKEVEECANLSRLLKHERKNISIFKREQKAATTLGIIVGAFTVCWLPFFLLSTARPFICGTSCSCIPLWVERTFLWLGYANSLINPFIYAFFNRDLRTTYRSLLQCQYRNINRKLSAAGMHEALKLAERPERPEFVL
T5 sequence (P50406 whole entry): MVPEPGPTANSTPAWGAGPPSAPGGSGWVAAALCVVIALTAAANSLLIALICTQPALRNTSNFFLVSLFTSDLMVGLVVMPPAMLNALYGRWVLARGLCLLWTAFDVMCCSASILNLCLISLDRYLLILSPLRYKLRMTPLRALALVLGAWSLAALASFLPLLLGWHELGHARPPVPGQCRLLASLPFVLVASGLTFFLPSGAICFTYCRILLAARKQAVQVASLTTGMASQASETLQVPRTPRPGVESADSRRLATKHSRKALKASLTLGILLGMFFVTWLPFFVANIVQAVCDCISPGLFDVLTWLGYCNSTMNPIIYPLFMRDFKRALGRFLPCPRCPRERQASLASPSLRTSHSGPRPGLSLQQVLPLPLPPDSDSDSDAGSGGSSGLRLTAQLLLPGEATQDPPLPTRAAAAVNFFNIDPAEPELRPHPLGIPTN
T7 sequence (P00743 234-492 limits assumed): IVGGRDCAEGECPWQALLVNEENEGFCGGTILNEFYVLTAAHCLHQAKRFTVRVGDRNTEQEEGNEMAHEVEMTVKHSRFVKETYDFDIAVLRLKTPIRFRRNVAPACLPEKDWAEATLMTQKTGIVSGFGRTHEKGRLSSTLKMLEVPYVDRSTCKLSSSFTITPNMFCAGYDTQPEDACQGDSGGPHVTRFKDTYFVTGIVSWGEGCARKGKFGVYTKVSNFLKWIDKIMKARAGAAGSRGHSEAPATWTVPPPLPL
T7 sequence (P00743 41-180 partner limits assumed): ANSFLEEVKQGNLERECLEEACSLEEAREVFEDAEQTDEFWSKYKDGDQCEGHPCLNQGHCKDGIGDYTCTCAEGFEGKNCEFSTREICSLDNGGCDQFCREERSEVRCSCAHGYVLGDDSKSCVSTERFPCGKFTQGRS

## c1cnc2ncccc2c1 [SX003]
[1]
  X-ray screen result, binding site: identified in the active site
[2]
  experimental hit status, SETD2: 0
[3]
  experimental hit status, Thrombin: 0
[4]; [11]
  inhibition at 10 µM: 34%
[4]
  experimental hit status, 5-HT7: 0
[4]; [12]
  inhibition at 10 µM: 34%
[4]; [13]
  inhibition at 10 µM: 34%
[4]; [14]
  inhibition at 10 µM: 32%
[4]; [15]
  inhibition at 10 µM: 36%
[5]; [16]
  inhibition at 10 µM: 48%
[5]
  experimental hit status, 5-HT6: 0
[5]; [17]
  inhibition at 10 µM: 48%
[5]; [18]
  inhibition at 10 µM: 48%
[5]; [19]
  inhibition at 10 µM: 55%
[5]; [20]
  inhibition at 10 µM: 41%
[6]; [21]
  inhibition at 10 µM: 22%
[6]
  experimental hit status, 5-HT1: 0
[6]; [22]
  inhibition at 10 µM: 22%
[6]; [23]
  inhibition at 10 µM: 22%
[6]; [24]
  inhibition at 10 µM: 24%
[6]; [25]
  inhibition at 10 µM: 21%
[7]
  experimental hit status, Factor Xa: 0
[8]
  antiviral activity in the cellular assay (in words): inactive in cells
[9]; HTRF assay, up to 5 mM concentration
  activity in the NSP3 enzyme assay (in words): no activity

## Nc1nnc2ccccn12 [SX005]
[1]
  X-ray screen result, binding site: identified in the active site
[2]
  experimental hit status, SETD2: 0
[3]
  experimental hit status, Thrombin: 0
[4]; [11]
  inhibition at 10 µM: 0%
[4]
  experimental hit status, 5-HT7: 0
[4]; [12]
  inhibition at 10 µM: -0.039%
[4]; [13]
  inhibition at 10 µM: 0%
[4]; [14]
  inhibition at 10 µM: -4.51%
[4]; [15]
  inhibition at 10 µM: 4.43%
[5]; [16]
  inhibition at 10 µM: 40%
[5]
  experimental hit status, 5-HT6: 0
[5]; [17]
  inhibition at 10 µM: 40%
[5]; [18]
  inhibition at 10 µM: 40%
[5]; [19]
  inhibition at 10 µM: 45%
[5]; [20]
  inhibition at 10 µM: 35%
[6]; [21]
  inhibition at 10 µM: 0%
[6]
  experimental hit status, 5-HT1: 0
[6]; [22]
  inhibition at 10 µM: -14%
[6]; [23]
  inhibition at 10 µM: 0%
[6]; [24]
  inhibition at 10 µM: 4%
[6]; [25]
  inhibition at 10 µM: -32%
[7]
  experimental hit status, Factor Xa: 0
[8]; Severe acute respiratory syndrome coronavirus 2, Vero C1008, read-out: Inhibition (%) of viral copy numbers, 1000 uM, replicates
  inhibition at 1000 µM: 83.7%
[8]
  antiviral activity in the cellular assay (in words): high micromolar range; also recorded: Significant antiviral activities
[9]; 39.0625 µM, replicates
  % SARS-CoV-2 macrodomain inhibition: 11.4%
  inhibition at 39.0625 µM: 10.2%
[9]; 78.125 µM, replicates
  % SARS-CoV-2 macrodomain inhibition: 23.5%
  inhibition at 78.125 µM: 22.6%
[9]; 156.25 µM, replicates
  % SARS-CoV-2 macrodomain inhibition: 31.2%
  inhibition at 156.25 µM: 27.9%
[9]; 312.5 µM, replicates
  % SARS-CoV-2 macrodomain inhibition: 41.8%
  inhibition at 312.5 µM: 41%
[9]; 625 µM, replicates
  % SARS-CoV-2 macrodomain inhibition: 55.4%
  inhibition at 625 µM: 54.1%
[9]; 1250 µM, replicates
  % SARS-CoV-2 macrodomain inhibition: 64.7%
  inhibition at 1250 µM: 65%
[9]; 2500 µM, replicates
  % SARS-CoV-2 macrodomain inhibition: 70.5%
  inhibition at 2500 µM: 72%
[9]; 5000 µM, replicates
  % SARS-CoV-2 macrodomain inhibition: 74.9%
  inhibition at 5000 µM: 74.7%
[9]; [26]
  IC50: 465 µM

## NC(=O)N1CCC(C(=O)O)CC1 [SX048]
[1]
  X-ray screen result, binding site: identified in the active site
[3]; plate layout, label = plate position, Cheng-Prusoff, Km 2.6 µM, read-out: Thrombin Ki
  Ki: 301 µM
[4]; [11]
  inhibition at 10 µM: 0%
[4]; [12]
  inhibition at 10 µM: -6.41%
[4]; [13]
  inhibition at 10 µM: 0%
[4]; [14]
  inhibition at 10 µM: -8%
[4]; [15]
  inhibition at 10 µM: -4.44%
[5]; [16]
  inhibition at 10 µM: 47%
[5]; [17]
  inhibition at 10 µM: 47%
[5]; [18]
  inhibition at 10 µM: 47%
[5]; [19]
  inhibition at 10 µM: 56%
[5]; [20]
  inhibition at 10 µM: 38%
[6]; [21]
  inhibition at 10 µM: 0.751%
[6]; [22]
  inhibition at 10 µM: 0.751%
[6]; [23]
  inhibition at 10 µM: 0.751%
[6]; [24]
  inhibition at 10 µM: 1.5%
[6]; [25]
  inhibition at 10 µM: 0%
[8]; 10 uM, replicates
  viral copy numbers normalized to the control (untreated infected cells): 1.6898 and 2.197 and 1.352
[8]; 100 uM, replicates
  Inhibition (%) of viral copy numbers: 8.992%
  viral copy numbers normalized to the control (untreated infected cells): 1.075 and 1.992 and 0.9101
[8]; 250 uM, replicates
  Inhibition (%) of viral copy numbers: 15.88% and 50.18% and 14.44%
  viral copy numbers normalized to the control (untreated infected cells): 0.8412 and 0.4982 and 0.8556
[8]; 500 uM, replicates
  Inhibition (%) of viral copy numbers: 81.12% and 43.68% and 14.44%
  viral copy numbers normalized to the control (untreated infected cells): 0.1888 and 0.5632 and 0.8556
[8]; 750 uM, replicates
  Inhibition (%) of viral copy numbers: 51.99% and 82.49% and 35.02%
  viral copy numbers normalized to the control (untreated infected cells): 0.4801 and 0.1751 and 0.6498
[8]; 1000 uM, replicates
  Inhibition (%) of viral copy numbers: 41.84% and 41.07%
  viral copy numbers normalized to the control (untreated infected cells): 0.5067 and 0.5816 and 0.5893
[8]; Severe acute respiratory syndrome coronavirus 2, Vero C1008, 10 uM, replicates, read-out: Inhibition (%) of viral copy numbers
  inhibition at 10 µM: 0%
[8]; Severe acute respiratory syndrome coronavirus 2, Vero C1008, 1000 uM, replicates, read-out: Inhibition (%) of viral copy numbers
  inhibition at 1000 µM: 49.3%
[8]
  antiviral activity in the cellular assay (in words): high micromolar range; also recorded: Significant antiviral activities
[9]; 98 µM, replicates
  % SARS-CoV-2 macrodomain inhibition: 4.2%
  inhibition at 98 µM: 5.1%
[9]; 195 µM, replicates
  % SARS-CoV-2 macrodomain inhibition: 3.7% and 10.3%
[9]; 391 µM, replicates
  % SARS-CoV-2 macrodomain inhibition: 5.0% and 0.65%
[9]; 781 µM, replicates
  % SARS-CoV-2 macrodomain inhibition: 4.2% and 0.6%
[9]; 1563 µM, replicates
  % SARS-CoV-2 macrodomain inhibition: 5.8%
  inhibition at 1563 µM: 6.6%
[9]; 3125 µM, replicates
  % SARS-CoV-2 macrodomain inhibition: 6.5% and 15.4%
[9]; 6250 µM, replicates
  % SARS-CoV-2 macrodomain inhibition: 80.4%
  inhibition at 6250 µM: 84.7%
[9]; 12500 µM, replicates
  % SARS-CoV-2 macrodomain inhibition: 102.4%
  inhibition at 12500 µM: 102%
[9]; HTRF assay, at 5 mM concentration
  NSP3 inhibition (in words): significant
[9]; [26]
  IC50: 5540 µM
[9]; NSP3 IC50, HTRF assay
  IC50: 5500 µM

## Nc1ncnc2c1ncn2[C@@H]1O[C@H](C[C@@H](N)CC[C@H](N)C(=O)O)[C@@H](O)[C@H]1O [Sinefungin, reference compound]
[2]; 200 µM Sinefungin
  inhibition of SETD2 activity (control, in words): complete inhibition
[2]; 200 µM
  SETD2 signal, blank corrected, normalized to positive ctrl: 0.074
[2]; 800 µM
  SETD2 signal, blank corrected, normalized to positive ctrl: 0.0136
[10]
  activity as inhibitor of SETD2 (in words): moderately active

— publication PMC8159961, “Exploring protein hotspots by optimized fragment pharmacophores” (Nature Communications, 2021)
